These results are taken from article PMC9933483, “Tail-Approach-Based Design and Synthesis of Coumarin-Monoterpenes as Carbonic Anhydrase Inhibitors and Anticancer Agents” (ACS Omega, 2023).

One data set has as its system HT-29 cell line. As to the kind of experiment: Cell cytotoxicity, MTT assay. The format is cell-based, human. To be noted: for IC50: Homo sapiens, HT-29, MTT, 24 h.
Another data set concerns MCF-7 cell line. In words: Cell cytotoxicity, MTT assay. It counts as cell-based, human. Conditions: Homo sapiens, MCF7, 24 h.
The test system of another data set is PC-3 cell line. In words: Cell cytotoxicity, MTT assay. Conditions: Homo sapiens, 24 h. The format is cell-based.
For a further data set, the system named is HEK293T cell line. In words: Cell cytotoxicity, MTT assay. It counts as cell-based. To be noted: Homo sapiens, HEK-293T, 24 h, healthy cell line.
For data set [1], the system named is CA IX. In words: Western blotting of CA IX protein expression in MCF-7 cells. The format is cell-based, human. To be noted: western blot, hypoxia (200 μM CoCl2), 24 h, three doses. As to the method: (§1) CA IX and CA XII protein expressions were evaluated in treated and control HT-29 and MCF7 cells after hypoxia induction. Cells were seeded in a 6-well plate in DMEM/F12 (normoxic cells) or DMEM/F12 containing 200 μM CoCl2 (hypoxic and treated cells) in order to create hypoxia.[25] HT29 cells were treated with 14 (40, 10, and 1.25 μM), 23 (80, 20, and 1.25 μM), and 66 (80, 20, and 1.25 μM), and MCF7 cells were treated with 14 (40, 10, and 1.25 μM), 23 (80, 20, and 1.25 μM), and 63 (80, 20, and 1.25 μM) for 24 h at three different doses. After the treatment period, cells were washed with cold PBS and homogenized into Ripa cell lysis buffer (Santa Cruz, USA). Samples were prepared, electrophoresed, and transferred according to the literature.[25] The membranes were blocked in 5% fat-free milk (w/v) for 1 h at RT, incubated with the corresponding antibody at 4 °C overnight, and then incubated with the horseradish peroxidase (HRP)-labeled secondary antibody for 1 h at RT. The following antibodies were used: anti-CA IX (ab107257, Abcam), anti-CA XII (sc-374314, Santa Cruz), and anti-GAPDH (A19056, Abclonal). Finally, the membranes were stained with ECL reagents (LumiGLO, CST, USA), and then, imaging was performed with the Bio-Rad Chemidoc Imaging System. The bands were calculated with the Image Lab (Bio-Rad, USA) and analyzed with Graphpad Prism 9.00 (San Diego, CA, USA).

The subject of data set [2] is CA XII. As to the kind of experiment: Western blotting of CA XII protein expression in MCF-7 cells. It counts as cell-based, human. Conditions: western blot, hypoxia (200 μM CoCl2), 24 h, three doses. As to the method:
as §1

The subject of data set [3] is CA IX. As to the kind of experiment: Western blotting of CA IX protein expression in HT-29 cells. The format is cell-based, human. Conditions: western blot, hypoxia (200 μM CoCl2), 24 h, three doses. As to the method: as §1
Data set [4] deals with CA XII. As to the kind of experiment: Western blotting of CA XII protein expression in HT-29 cells. The format is cell-based, human. Conditions: western blot, hypoxia (200 μM CoCl2), 24 h, three doses. As to the method:
as §1

Another data set has as its system HT-29 cells. In words: Fluorescence microscopy, PI/Hoechst staining. Conditions: HT-29, 1.25 μM, 24 h. It counts as cell-based, human. As to the method: HT-29 cells were stained with propidium iodide (PI) and Hoechst 33342 for observation of cell viability under the microscope. HT29 cells were treated with 14, 23, and 66 for 24 h at 1.25 μM concentration. After the treatment period cells were rinsed with PBS, fixed with ice-cold ethanol (95%) at −20 °C for 2 h, and then rinsed with PBS again. Cells were incubated with PI and Hoechst for 10 min and observed by using a fluorescence microscope (Zeiss Axio Observer Z1) with the appropriate excitation/detection filters.

A further data set concerns the target hCA IX (Homo sapiens, UniProt Q16790). As to the kind of experiment: biochemical.

In the case of `C=CCc1ccc(OCCCCCCOc2ccc3ccc(=O)oc3c2)c(OC)c1` [Compound 63, 7-((6-(4-Allyl-2-methoxyphenoxy)hexyl)oxy)-2H-chromen-2-one], the IC50 was above 200 µM in the data set with HT-29 cell line, 3.91 ± 2.16 µM in the data set with MCF-7 cell line, 36.4 ± 12.3 µM in the data set with PC-3 cell line and 40.6 ± 12.1 µM in the data set with HEK293T cell line. Besides, in the data set with CA IX [1], the “CA IX expression in MCF-7 cells” value was “decreased”. For the same compound, the “CA XII expression in MCF-7 cells” value in the data set on CA XII [2] is on record as “decreased”.

Take `Cc1ccc(C(C)C)cc1OCc1cn(CCCCCCOc2ccc3ccc(=O)oc3c2)nn1` [Compound 23, 7-((6-(4-((5-Isopropyl-2-methylphenoxy)methyl)-1H-1,2,3-triazol-1-yl)hexyl)oxy)-2H-chromen-2-one]: the half-inhibitory concentration (IC50) with HT-29 cell line worked out at 12.1 ± 3.63 µM; in the data set on MCF-7 cell line it was 9.1 ± 3.93 µM; in the data set on PC-3 cell line it was 9.4 ± 3.35 µM; in the data set with HEK293T cell line, 8.82 ± 1.42 µM. Also, in the data set on HT-29 cell line (compared with dox), the “selectivity on HT-29 (cancer vs healthy cells) relative to dox” value is on record as 3 fold. Moreover, the “CA IX expression in HT-29 cells” value in the data set on CA IX [3] is listed as “decreased”. Moreover, in the data set on CA XII [4], the “CA XII expression in HT-29 cells” value was “decreased”. In the data set with CA IX [1], the “CA IX expression in MCF-7 cells” value was “decreased”. The “CA XII expression in MCF-7 cells” value with CA XII [2] is on record as “decreased”. The “apoptotic/dead cells by PI/Hoechst staining” value (“apoptotic/dead cells” below) with HT-29 cells was “increased apoptotic/dead cells”. This compound had a Ki at hCA IX of 0.0019 µM.

For the compound `C=CCc1ccc(OCCCCCCCCCCOc2ccc3ccc(=O)oc3c2)c(OC)c1` [Compound 66, 7-((10-(4-Allyl-2-methoxyphenoxy)decyl)oxy)-2H-chromen-2-one], the IC50 came to 22 ± 5.63 µM in the data set on HT-29 cell line, 17.8 ± 2.76 µM in the data set on MCF-7 cell line, 25.6 ± 3.47 µM in the data set with PC-3 cell line and 18.3 ± 3.08 µM in the data set with HEK293T cell line. The “CA IX expression in HT-29 cells” value with CA IX [3] is “decreased”. In addition, the “CA XII expression in HT-29 cells” value in the data set on CA XII [4] is on record as “decreased”. Besides, the “apoptotic/dead cells” value with HT-29 cells is “increased apoptotic/dead cells”. Also, on hCA IX, the Ki was found to be 1.3 µM.

Turning to `Cc1ccc(C(C)C)c(OCc2cn(CCCCOc3ccc4ccc(=O)oc4c3)nn2)c1` [Compound 14, 7-(4-(4-((2-Isopropyl-5-methylphenoxy)methyl)-1H-1,2,3-triazol-1-yl)butoxy)-2H-chromen-2-one], the half-inhibitory concentration (IC50) in the data set on HT-29 cell line came to 25.1 ± 6.47 µM; in the data set on MCF-7 cell line, 2.48 ± 0.69 µM; with PC-3 cell line, 53.8 ± 23.4 µM; in the data set on HEK293T cell line it was 4.57 ± 0.33 µM. The “CA IX expression in HT-29 cells” value in the data set on CA IX [3] is on record as “decreased”. For the same compound, the “CA XII expression in HT-29 cells” value in the data set on CA XII [4] was “decreased”. In the data set with CA IX [1], the “CA IX expression in MCF-7 cells” value is recorded as “decreased”. In the data set with CA XII [2], the “CA XII expression in MCF-7 cells” value was “decreased”. For the same compound, the “apoptotic/dead cells” value in the data set with HT-29 cells is listed as “increased apoptotic/dead cells”.

In the case of `CC1CCC(C(C)C)C(OCc2cn(CCCCCCCCCCCCOc3ccc4ccc(=O)oc4c3)nn2)C1` (stereo not shown) [Compound 43, 7-((12-(4-(((2-Isopropyl-5-methylcyclohexyl)oxy)methyl)-1H-1,2,3-triazol-1-yl)dodecyl)oxy)-2H-chromen-2-one], the melting point fell in the range of 59 to 60 °C. Moreover, in the data set with HT-29 cell line, 27.2 ± 6.18 µM corresponded to half-maximal inhibition (IC50). The compound also registered a half-maximal inhibitory concentration (IC50) in the data set on MCF-7 cell line of 77.2 ± 34.8 µM. In the data set with PC-3 cell line, this compound came in with an IC50 of 32.3 ± 9.99 µM. Also, the IC50 in the data set on HEK293T cell line is 50.6 ± 8.63 µM. This compound also came in with a Ki on hCA IX of 0.0025 µM.
